Assay results reported in the NIST ThermoML archive (doi:10.1016/j.jct.2017.07.008).
Numbers after ± are expanded uncertainties.

Assay: refractive index (Na D-line) (dimensionless)
Conditions: 100 kPa, Liquid, Standard Abbe refractometry

O=Cc1cccs1 [2-thiophenealdehyde]
Conditions	refractive index
283.15 K	1.5924 ± 0.0004
285.65 K	1.5912 ± 0.0004
288.15 K	1.59 ± 0.0004
290.65 K	1.5888 ± 0.0004
293.15 K	1.5876 ± 0.0004
295.65 K	1.5864 ± 0.0004
298.15 K	1.5853 ± 0.0004
300.65 K	1.5841 ± 0.0004
303.15 K	1.5829 ± 0.0004
305.65 K	1.5817 ± 0.0004
308.15 K	1.5805 ± 0.0004
310.65 K	1.5793 ± 0.0004
313.15 K	1.5781 ± 0.0004
315.65 K	1.5769 ± 0.0004
318.15 K	1.5757 ± 0.0004
320.65 K	1.5745 ± 0.0004
323.15 K	1.5733 ± 0.0004
325.65 K	1.5721 ± 0.0004
328.15 K	1.5709 ± 0.0004
330.65 K	1.5697 ± 0.0004
333.15 K	1.5685 ± 0.0004
335.65 K	1.5674 ± 0.0004
338.15 K	1.5662 ± 0.0004

OCc1cccs1 [2-thiophenemethanol]
Conditions	refractive index
283.15 K	1.5713 ± 0.0004
285.65 K	1.5701 ± 0.0004
288.15 K	1.569 ± 0.0004
290.65 K	1.5679 ± 0.0004
293.15 K	1.5668 ± 0.0004
295.65 K	1.5657 ± 0.0004
298.15 K	1.5646 ± 0.0004
300.65 K	1.5635 ± 0.0004
303.15 K	1.5624 ± 0.0004
305.65 K	1.5613 ± 0.0004
308.15 K	1.5602 ± 0.0004
310.65 K	1.559 ± 0.0004
313.15 K	1.5579 ± 0.0004
315.65 K	1.5568 ± 0.0004
318.15 K	1.5557 ± 0.0004
320.65 K	1.5546 ± 0.0004
323.15 K	1.5535 ± 0.0004
325.65 K	1.5524 ± 0.0004
328.15 K	1.5513 ± 0.0004
330.65 K	1.5502 ± 0.0004
333.15 K	1.5491 ± 0.0004
335.65 K	1.548 ± 0.0004
338.15 K	1.5468 ± 0.0004
